Experimental data published in patent publication US10364222B2, “Cyclic amine derivative and medical use thereof” (Toray Industries, Inc., priority 2016, dated 2019).

What was measured:
[1] = target: T1, ligand-binding domain of RORγ (RORγ-LBD) (Homo sapiens, UniProt P51449); assay: Inhibitory effect on RORγ-coactivator binding (LanthaScreen TR-FRET RORγ Coactivator Assay); details: at 33 μmol/L of the test compound; read-out: RORγ-coactivator binding inhibition rate (%)
T1 construct: purchased Invitrogen
T1 sequence (P51449 269-508 limits assumed): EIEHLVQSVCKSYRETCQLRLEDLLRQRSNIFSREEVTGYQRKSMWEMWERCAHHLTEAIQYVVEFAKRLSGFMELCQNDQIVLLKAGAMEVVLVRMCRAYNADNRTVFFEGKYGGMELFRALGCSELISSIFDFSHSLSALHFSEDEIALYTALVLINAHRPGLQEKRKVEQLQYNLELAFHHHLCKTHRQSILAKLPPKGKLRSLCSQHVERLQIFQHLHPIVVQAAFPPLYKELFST
Procedure: The inhibitory effect of the cyclic amine derivative (I) or a pharmacologically acceptable salt thereof on the binding between a ligand-binding domain of RORγ (hereinafter referred to as RORγ-LBD) and a coactivator was evaluated using Invitrogen's LanthaScreen™TR-FRET Retinoid-Related Orphan Receptor (ROR) gamma Coactivator Assay kit utilizing time-resolved fluorescence energy transfer (TR-FRET).
The test compound was dissolved in DMSO and diluted with TR-FRET Coregulator Buffer D (Invitrogen) containing 5 mmol/L of DTT to have a final DMSO concentration of 1% before use. To each well of a 384-well black plate (Corning Inc.), 4 nmol/L of GST-fused RORγ-LBD (Invitrogen) diluted with the buffer mentioned above and the test compound were added. A well without addition of the test compound and without addition of GST-fused RORγ-LBD (background) and a well without addition of the test compound and with addition of GST-fused RORγ-LBD (control) were prepared. Next, 150 nmol/L of fluorescein-labeled TRAP220/DRIP-2 (Invitrogen) diluted with the buffer mentioned above and 32 nmol/L of terbium-labeled anti-GST antibody (Invitrogen) were added to each well. After incubating the plate at room temperature for 16 to 24 hours, the fluorescence at 495 nm and 520 nm when excited at 320 nm was measured for each well and the ratio (fluorescence value at 520 nm/fluorescence value at 495 nm) was calculated.
The fold change with addition of the test compound (ratio with addition of the test compound/ratio of the background), the fold change of the control (ratio of the control/ratio of the background), and the fold change of the background (ratio of the background/ratio of the background) were calculated, and then the inhibition rate of binding between RORγ-LBD and a coactivator (hereinafter referred to as RORγ-coactivator binding inhibition rate) (%) was calculated from Formula 1: RORγ-coactivator binding inhibition rate(%)=(1−((Fold change with addition of the test compound)−(Fold change of the background))/((Fold change of the control)−(Fold change of the background)))×100 Formula 1

[2] = tested on: IL-17 production in mouse splenocytes; assay: Suppressive effect on IL-17 production by IL-23 stimulation in mouse splenocytes; assay type: cell-based; details: Splenocyte, 72 h, at 5 μmol/L of the test compound, 10 ng/mL human IL-23, 3 days, read-out: IL-17 production inhibition rate (%)
Summary of the method: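 Splenocytes from male C57BL/6J mice (3×10^5/well, with 100 U/mL human IL-2) stimulated with 10 ng/mL human IL-23 plus compound (0.1% DMSO) for 3 days at 37 °C. Supernatant IL-17 measured by ELISA; inhibition calculated against unstimulated and IL-23-only wells.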

Compound	inhibition at 33 µM [1] [%]	inhibition at 5 µM [2] [%]
CN(CCC(=O)N1CCCCC1C(=O)Nc1ccc(-c2ccccc2OC(F)(F)F)c(Cl)c1)S(C)(=O)=O (centres unmarked) [Example 36, N-(2-chloro-2′-(trifluoromethoxy)-[1,1′-biphenyl]-4-yl)-1-(3-(N-methylmethylsulfonamide)propanoyl)piperidine-2-carboxamide]	97.2	96.9
O=C(Nc1ccc(-c2ccccc2OC(F)(F)F)c(Cl)c1)C1CCCCN1C(=O)CO (centres unmarked) [Example 5, N-(2-chloro-2′-(trifluoromethoxy)-[1,1′-biphenyl]-4-yl)-1-(2-hydroxyacetyl)piperidine-2-carboxamide]	96.9	99.5
CN(CC(=O)N1CCCCC1C(=O)Nc1ccc(-c2ccccc2OC(F)(F)F)c(F)c1)S(C)(=O)=O (centres unmarked) [Example 51, N-(2-fluoro-2′-(trifluoromethoxy)-[1,1′-biphenyl]-4-yl)-1-(2-(N-methylmethylsulfonamide)acetyl)piperidine-2-carboxamide]	100	98.6
O=C(Nc1ccc(-c2ccccc2OC(F)(F)F)c(Cl)c1)C1CCCCN1C(=O)COC(F)(F)F (centres unmarked) [Example 8, N-(2-chloro-2′-(trifluoromethoxy)-[1,1′-biphenyl]-4-yl)-1-(2-(trifluoromethoxy)acetyl)piperidine-2-carboxamide]	95.2	99.2
O=C(Nc1ccc(-c2ccccc2OC(F)(F)F)c(Cl)c1)C1CCCCN1C(=O)Cn1ccnc1 (centres unmarked) [Example 52, 1-(2-(1H-imidazol-1-yl)acetyl)-N-(2-chloro-2′-(trifluoromethoxy)-[1,1′-biphenyl]-4-yl)piperidine-2-carboxamide]	97.3	99.3

More lines, main results first:

inhibition at 33 µM [1] [%]	Compound	inhibition at 5 µM [2] [%]
102	O=C(Nc1ccc(-c2ccccc2OC(F)(F)F)c(Cl)c1)[C@H]1CCCCN1C(=O)Cn1cccn1 [Example 61, (R)-1-(2-(1H-pyrazol-1-yl)acetyl)-N-(2-chloro-2′-(trifluoromethoxy)-[1,1′-biphenyl]-4-yl)piperidine-2-carboxamide]	98.8
105	O=C(Nc1ccc(-c2ccccc2OC(F)(F)F)c(Cl)c1)C1CCCCN1C(=O)Cn1cnnn1 (centres unmarked) [Example 53, 1-(2-(1H-tetrazol-1-yl)acetyl)-N-(2-chloro-2′-(trifluoromethoxy)-[1,1′-biphenyl]-4-yl)piperidine-2-carboxamide]	102
